Laboratory results as given in US10245261B2, “Substituted indol-5-ol derivatives and their therapeutic applications” (NantBioScience, Inc., priority 2013, dated 2019).

What was measured:
Experiment in all cases: KinaseProfiler kinase assay
Assay type in all cases: biochemical
[1] = biological target: cSRC(h) (Homo sapiens, UniProt P12931)
Method: (§1) This example tests the inhibitory properties of representative compounds of the invention in c-Src kinase, Aurora-A kinase, Flt3 kinase, Ret kinase and TrkA Kinase assays (see, Daniele Fancelli et al, J. Med. Chem., 2006, 49 (24), pp 7247-7251). The KinaseProfiler™ Service Assay Protocols (Millipore) was used to test the kinase inhibiting activity of novel compounds from this invention. To do this, the buffer composition was as: 20 mM MOPS, 1 mM EDTA, 0.01% Brij-35, 5% Glycerol, 0.1% β-mercaptoethanol, 1 mg/mL BSA. Test compounds were initially dissolved in DMSO at the desired concentration, then serially diluted to the kinase assay buffer. In a final reaction volume of 25 μL, Aurora-A(h) (5-10 mU) is incubated with 8 mM MOPS pH 7.0, 0.2 mM EDTA, 200 μM LRRASLG (Kemptide), 10 mM MgAcetate and [γ^33P-ATP]. The reaction was initiated by the addition of the MgATP mix. After incubation for 40 minute at room temperature, the reaction was stopped by addition of 5 μL of a 3% phosphoric acid solution. 10 μL of the reaction was then spotted onto a P30 filtermat and washed three times for 5 minutes in 50 mM phosphoric acid and once in methanol prior to drying and scintillation counting. Wells containing substrate but no kinase and wells containing a phosphopeptide control were used to set 0% and 100% phosphorylation value, respectively.
(§2) The Kinase Hotspot℠ kinase assay was also used to test the compounds for IC50 or % inhibitions (Reaction Biology Corp.). Inhibitory IC50 values were determined by titration of compound at the optimal kinase concentration (Kinase EC50).

[2] = biological target: Ret(h) (Homo sapiens, UniProt P07949)
Sequence of Ret(h) (P07949 29-1114): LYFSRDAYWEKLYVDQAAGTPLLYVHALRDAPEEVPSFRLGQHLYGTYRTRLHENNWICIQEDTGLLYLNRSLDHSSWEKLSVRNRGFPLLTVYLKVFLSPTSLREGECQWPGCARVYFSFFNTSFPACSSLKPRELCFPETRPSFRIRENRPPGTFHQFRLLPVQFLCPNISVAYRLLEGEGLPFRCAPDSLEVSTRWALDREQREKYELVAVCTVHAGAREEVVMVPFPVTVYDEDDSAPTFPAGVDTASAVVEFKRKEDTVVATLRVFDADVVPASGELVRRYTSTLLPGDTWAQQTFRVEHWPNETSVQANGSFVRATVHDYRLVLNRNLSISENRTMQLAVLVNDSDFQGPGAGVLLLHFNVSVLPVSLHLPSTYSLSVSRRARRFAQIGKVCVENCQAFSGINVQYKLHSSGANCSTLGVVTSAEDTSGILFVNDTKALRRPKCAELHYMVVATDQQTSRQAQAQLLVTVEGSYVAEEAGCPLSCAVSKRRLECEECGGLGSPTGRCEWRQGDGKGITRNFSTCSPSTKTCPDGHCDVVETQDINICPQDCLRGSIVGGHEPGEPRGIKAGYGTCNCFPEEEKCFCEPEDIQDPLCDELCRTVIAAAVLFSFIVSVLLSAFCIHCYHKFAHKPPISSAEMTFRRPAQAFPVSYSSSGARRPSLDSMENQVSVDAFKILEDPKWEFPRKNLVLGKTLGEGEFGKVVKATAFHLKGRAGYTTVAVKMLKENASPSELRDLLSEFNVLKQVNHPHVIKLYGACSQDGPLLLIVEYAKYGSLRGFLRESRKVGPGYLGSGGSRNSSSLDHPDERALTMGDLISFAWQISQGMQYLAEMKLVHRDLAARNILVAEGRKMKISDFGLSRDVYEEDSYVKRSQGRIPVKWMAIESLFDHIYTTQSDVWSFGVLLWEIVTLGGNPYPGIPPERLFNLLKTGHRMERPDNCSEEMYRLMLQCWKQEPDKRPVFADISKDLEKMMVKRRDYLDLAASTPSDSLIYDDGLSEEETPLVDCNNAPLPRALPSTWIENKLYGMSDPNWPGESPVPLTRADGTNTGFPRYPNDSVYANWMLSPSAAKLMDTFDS
Method: as §1, §2

[3] = biological target: T1, Flt3(h) (Homo sapiens, UniProt P36888)
T1 sequence (P36888 27-993): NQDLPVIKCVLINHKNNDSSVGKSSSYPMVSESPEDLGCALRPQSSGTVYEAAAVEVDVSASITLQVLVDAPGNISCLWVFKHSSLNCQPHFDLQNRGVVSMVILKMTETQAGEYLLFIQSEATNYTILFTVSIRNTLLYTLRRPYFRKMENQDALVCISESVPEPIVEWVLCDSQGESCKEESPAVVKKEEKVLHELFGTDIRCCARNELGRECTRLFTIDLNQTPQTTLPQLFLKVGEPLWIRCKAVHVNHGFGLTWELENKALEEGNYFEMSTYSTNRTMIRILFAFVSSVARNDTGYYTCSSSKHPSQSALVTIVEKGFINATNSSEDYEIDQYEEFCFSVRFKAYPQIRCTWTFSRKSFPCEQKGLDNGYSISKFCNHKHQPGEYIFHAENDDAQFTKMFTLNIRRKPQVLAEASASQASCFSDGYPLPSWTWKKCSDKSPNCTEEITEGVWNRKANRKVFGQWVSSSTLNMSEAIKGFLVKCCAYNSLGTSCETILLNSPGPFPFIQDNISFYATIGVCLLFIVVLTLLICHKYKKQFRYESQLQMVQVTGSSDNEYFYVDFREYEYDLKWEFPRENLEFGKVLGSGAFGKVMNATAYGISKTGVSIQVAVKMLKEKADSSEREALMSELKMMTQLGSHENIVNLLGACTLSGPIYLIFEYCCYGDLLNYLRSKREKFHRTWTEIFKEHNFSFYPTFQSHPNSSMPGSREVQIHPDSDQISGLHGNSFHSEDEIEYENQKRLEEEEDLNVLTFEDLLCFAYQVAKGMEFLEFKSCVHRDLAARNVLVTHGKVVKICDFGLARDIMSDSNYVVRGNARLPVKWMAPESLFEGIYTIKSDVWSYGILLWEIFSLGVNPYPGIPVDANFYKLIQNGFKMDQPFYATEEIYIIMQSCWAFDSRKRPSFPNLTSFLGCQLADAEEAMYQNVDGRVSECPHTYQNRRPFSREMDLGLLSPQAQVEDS
Method: as §1, §2

[4] = biological target: T2, Aurora-A(h) (Homo sapiens, UniProt O14965); conditions: read-out: % Inhibition @1 μM Auroro-A
T2 sequence (O14965 1-403): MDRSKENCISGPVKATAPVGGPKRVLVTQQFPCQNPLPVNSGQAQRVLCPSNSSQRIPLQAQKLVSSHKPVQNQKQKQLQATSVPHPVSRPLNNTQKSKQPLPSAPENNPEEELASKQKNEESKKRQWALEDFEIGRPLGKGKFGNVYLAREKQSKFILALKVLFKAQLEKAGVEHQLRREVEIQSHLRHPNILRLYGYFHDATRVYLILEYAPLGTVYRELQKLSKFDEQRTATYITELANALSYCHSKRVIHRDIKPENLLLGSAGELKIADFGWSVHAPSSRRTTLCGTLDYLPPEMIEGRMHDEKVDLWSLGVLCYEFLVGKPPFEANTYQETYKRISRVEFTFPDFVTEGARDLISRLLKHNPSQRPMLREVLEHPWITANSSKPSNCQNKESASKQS
Method: as §1, §2

[5] = biological target: KDR(h) (Homo sapiens, UniProt P35968)
Sequence of KDR(h) (P35968 20-1356): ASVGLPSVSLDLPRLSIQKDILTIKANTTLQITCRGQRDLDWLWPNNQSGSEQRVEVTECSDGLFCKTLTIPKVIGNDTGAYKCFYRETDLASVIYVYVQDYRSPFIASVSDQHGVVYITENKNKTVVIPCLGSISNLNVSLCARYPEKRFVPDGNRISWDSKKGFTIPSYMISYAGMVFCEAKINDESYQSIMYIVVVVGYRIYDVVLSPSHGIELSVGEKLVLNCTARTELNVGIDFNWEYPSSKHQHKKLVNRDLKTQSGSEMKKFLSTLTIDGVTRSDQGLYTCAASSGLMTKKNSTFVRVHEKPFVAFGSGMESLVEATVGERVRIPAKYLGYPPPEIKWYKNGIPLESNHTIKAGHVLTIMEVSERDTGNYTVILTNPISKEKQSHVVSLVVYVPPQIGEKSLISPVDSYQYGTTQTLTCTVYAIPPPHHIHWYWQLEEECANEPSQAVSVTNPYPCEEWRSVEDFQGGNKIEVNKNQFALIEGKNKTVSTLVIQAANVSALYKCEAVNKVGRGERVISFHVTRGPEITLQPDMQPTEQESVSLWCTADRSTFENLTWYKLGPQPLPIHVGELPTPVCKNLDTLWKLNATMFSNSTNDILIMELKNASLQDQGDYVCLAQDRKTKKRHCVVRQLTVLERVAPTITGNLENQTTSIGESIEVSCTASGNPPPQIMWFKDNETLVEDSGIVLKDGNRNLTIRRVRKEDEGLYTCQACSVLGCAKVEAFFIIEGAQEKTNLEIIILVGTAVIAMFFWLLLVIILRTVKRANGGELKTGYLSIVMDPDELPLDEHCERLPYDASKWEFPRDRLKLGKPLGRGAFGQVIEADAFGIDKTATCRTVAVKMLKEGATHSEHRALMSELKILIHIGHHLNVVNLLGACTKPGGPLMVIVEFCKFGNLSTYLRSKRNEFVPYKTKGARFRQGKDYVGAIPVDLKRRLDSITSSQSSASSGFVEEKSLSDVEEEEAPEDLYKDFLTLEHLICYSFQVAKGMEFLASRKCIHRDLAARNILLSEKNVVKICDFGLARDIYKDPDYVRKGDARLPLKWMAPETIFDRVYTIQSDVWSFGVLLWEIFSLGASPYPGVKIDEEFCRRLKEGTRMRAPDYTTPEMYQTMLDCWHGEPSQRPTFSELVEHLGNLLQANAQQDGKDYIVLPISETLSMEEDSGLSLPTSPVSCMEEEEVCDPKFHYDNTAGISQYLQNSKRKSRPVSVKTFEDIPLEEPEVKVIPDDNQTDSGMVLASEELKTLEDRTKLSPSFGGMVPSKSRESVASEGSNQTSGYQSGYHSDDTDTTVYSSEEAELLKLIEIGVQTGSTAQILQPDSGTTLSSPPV

[6] = biological target: Abl(h) (Homo sapiens, UniProt P00519)
Sequence of Abl(h) (P00519 whole entry): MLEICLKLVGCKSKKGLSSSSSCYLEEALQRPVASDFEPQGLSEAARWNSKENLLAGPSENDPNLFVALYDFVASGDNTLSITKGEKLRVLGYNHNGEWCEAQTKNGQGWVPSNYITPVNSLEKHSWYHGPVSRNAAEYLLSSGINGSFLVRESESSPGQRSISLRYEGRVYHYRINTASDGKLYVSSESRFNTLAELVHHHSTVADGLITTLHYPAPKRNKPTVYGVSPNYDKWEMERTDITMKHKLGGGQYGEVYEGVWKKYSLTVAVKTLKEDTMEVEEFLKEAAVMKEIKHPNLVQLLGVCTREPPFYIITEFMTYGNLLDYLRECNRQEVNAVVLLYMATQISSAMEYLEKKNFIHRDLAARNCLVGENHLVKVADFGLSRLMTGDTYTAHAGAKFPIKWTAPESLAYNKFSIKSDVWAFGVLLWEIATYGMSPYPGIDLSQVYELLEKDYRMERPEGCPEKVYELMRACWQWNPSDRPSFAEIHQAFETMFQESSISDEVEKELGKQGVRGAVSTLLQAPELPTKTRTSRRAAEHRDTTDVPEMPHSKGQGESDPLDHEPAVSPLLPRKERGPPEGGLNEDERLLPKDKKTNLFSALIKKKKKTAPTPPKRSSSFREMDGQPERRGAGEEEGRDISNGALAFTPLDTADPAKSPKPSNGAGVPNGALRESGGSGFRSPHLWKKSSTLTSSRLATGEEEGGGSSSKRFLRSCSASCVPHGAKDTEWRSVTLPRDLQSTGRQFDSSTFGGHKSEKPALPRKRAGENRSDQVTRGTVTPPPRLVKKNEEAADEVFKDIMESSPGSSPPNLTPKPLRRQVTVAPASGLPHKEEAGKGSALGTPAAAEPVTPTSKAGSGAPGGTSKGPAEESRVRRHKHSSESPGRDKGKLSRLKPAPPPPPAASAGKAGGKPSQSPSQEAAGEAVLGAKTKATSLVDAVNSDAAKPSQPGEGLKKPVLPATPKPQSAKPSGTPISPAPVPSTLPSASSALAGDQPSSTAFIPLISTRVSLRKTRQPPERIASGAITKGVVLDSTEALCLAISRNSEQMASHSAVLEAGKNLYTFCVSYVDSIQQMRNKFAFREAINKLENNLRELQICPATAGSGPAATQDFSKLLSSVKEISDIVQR

Sequence of cSRC(h) (P12931 whole entry): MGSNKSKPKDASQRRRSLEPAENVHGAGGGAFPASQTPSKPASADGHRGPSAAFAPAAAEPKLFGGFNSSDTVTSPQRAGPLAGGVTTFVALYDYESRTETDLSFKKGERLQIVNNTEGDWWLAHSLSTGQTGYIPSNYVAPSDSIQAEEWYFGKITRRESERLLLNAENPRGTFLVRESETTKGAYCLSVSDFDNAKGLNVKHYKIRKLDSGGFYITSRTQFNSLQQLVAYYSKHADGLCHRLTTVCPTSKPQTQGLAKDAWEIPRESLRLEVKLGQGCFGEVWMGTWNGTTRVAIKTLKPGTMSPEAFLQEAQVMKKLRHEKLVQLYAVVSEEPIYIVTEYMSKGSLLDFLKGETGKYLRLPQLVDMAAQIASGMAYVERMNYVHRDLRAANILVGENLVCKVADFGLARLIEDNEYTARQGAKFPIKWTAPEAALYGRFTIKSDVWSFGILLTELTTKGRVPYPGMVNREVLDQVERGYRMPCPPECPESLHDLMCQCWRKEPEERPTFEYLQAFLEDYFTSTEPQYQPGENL

inhibition at 1 µM [1] [%]	inhibition at 1 µM [2] [%]	inhibition at 1 µM [3] [%]	inhibition at 1 µM [4] [%]	inhibition at 1 µM [5] [%]	inhibition at 1 µM [6] [%]	SMILES
104	102	101	100	88	114	Cc1cc2c(F)c(Oc3nc(Nc4cc(C5CC5)[nH]n4)cc(N4CCOCC4)n3)ccc2n1C [Compound 123]
100	102	100	100	96	111	C/C=C/c1cc(Nc2cc(N3CCC(O)C3)nc(Oc3cc(F)c4[nH]c(C)cc4c3F)n2)n[nH]1 (stereo not drawn) [Compound 92]
101	101	99	101	96	110	C/C=C/c1cc(Nc2cc(N3CCN(S(C)(=O)=O)CC3)nc(Oc3ccc4[nH]c(C)cc4c3F)n2)n[nH]1 [Compound 55]
98	98	100	100	93	108	Cc1cc2c(F)c(Oc3nc(Nc4cc(C5CC5)[nH]n4)cc(N4CCC(N(C)C)C4)n3)ccc2[nH]1 (stereo not drawn) [Compound 17]
100	100	101	100	96	112	Cc1cc2c(F)c(Oc3nc(Nc4cc(C5CC5)[nH]n4)cc(N4CCOCC4)n3)ccc2[nH]1 [Compound 13]
99	100	99	100	93	108	Cc1cc2c(F)c(Oc3nc(Nc4cc(C5CC5)[nH]n4)cc(N4CCNC(=O)C4)n3)ccc2[nH]1 [Compound 19]
99	101	100	100	94	110	Cc1cc2c(F)c(Oc3nc(Nc4cc(C5CC5)[nH]n4)cc(N4CCOC(CN(C)C)C4)n3)ccc2[nH]1 (stereo not drawn) [Compound 30]
98	98	99	97	95	109	Cc1cc(Nc2cc(N3CCNCC3)nc(Oc3cc(F)c4[nH]c(C)cc4c3F)n2)n[nH]1 [Compound 106]
100	99	100	100	96	112	C/C=C/c1cc(Nc2cc(N3CCOCC3)nc(Oc3cc(F)c4[nH]c(C)cc4c3F)n2)n[nH]1 [Compound 89]
100	102	99	100	96	111	C/C=C/c1cc(Nc2cc(N3CCC(N(CC)CC)C3)nc(Oc3cc(F)c4[nH]c(C)cc4c3F)n2)n[nH]1 (stereo not drawn) [Compound 94]
98	101	98	80	95	108	Cc1cc2c(F)c(Oc3nc(Nc4cc(C5CC5)[nH]n4)cc(N4CCN(CC(F)(F)F)CC4)n3)ccc2[nH]1 [Compound 38]
99	99	101	99	96	110	Cc1cc2c(F)c(Oc3nc(Nc4cc(C5CC5)[nH]n4)cc(N4CCN(C)CC4)n3)cc(F)c2[nH]1 [Compound 81]
99	101	100	101	91	108	Cc1cc2c(F)c(Oc3nc(Nc4cc(C5CC5)[nH]n4)cc(N4CC(O)C4)n3)ccc2[nH]1 [Compound 15]
101	102	100	102	95	111	C/C=C/c1cc(Nc2cc(N3CCC(OC)C3)nc(Oc3cc(F)c4[nH]c(C)cc4c3F)n2)n[nH]1 (stereo not drawn) [Compound 93]
100	101	99	99	96	111	C/C=C/c1cc(Nc2cc(N3CCN(C(C)=O)CC3)nc(Oc3ccc4[nH]c(C)cc4c3F)n2)n[nH]1 [Compound 56]
96	99	98	95	90	111	Cc1cc(Nc2cc(N3CCOCC3)nc(Oc3cc(F)c4[nH]c(C)cc4c3F)n2)n[nH]1 [Compound 107]
104	102	101	101	91	115	CCN1CCN(c2cc(Nc3cc(C4CC4)[nH]n3)nc(Oc3ccc4[nH]c(C)cc4c3F)n2)CC1 [Compound 31]
100	100	100	98	93	103	Cc1cc2c(F)c(Oc3nc(Nc4cc(C5CC5)[nH]n4)cc(N4CCOCC4)n3)cc(F)c2[nH]1 [Compound 84]
99	100	100	99	93	107	Cc1cc2c(F)c(Oc3nc(Nc4cc(C5CC5)[nH]n4)cc(N4C[C@@H](C)N[C@@H](C)C4)n3)ccc2[nH]1 [Compound 20]
101	102	99	87	95	111	Cc1cc2c(F)c(Oc3nc(Nc4cc(C5CC5)[nH]n4)cc(N4CCNC(CO)C4)n3)ccc2[nH]1 (stereo not drawn) [Compound 43]
104	102	102	91	92	116	C/C=C/c1cc(Nc2cc(N3CCOCC3)nc(Oc3ccc4c(cc(C)n4C)c3F)n2)n[nH]1 [Compound 121]
